Measurements reported in patent US20260165323A1, “USE OF STROBILURIN TYPE COMPOUNDS FOR COMBATING PHYTOPATHOGENIC FUNGI CONTAINING AN AMINO ACID SUBSTITUTION F129L IN THE MITOCHONDRIAL CYTOCHROME B PROTEIN CONFERRING RESISTANCE TO QO […]” (priority 2022, published 2026).

Legend:
Format in all cases: in vivo
[1] = system: Phakopsora pachyrhizi containing the amino acid substitution F129L in the mitochondrial cytochrome b protein; test: Use Example 2: protective control of soybean rust on soybeans (PHAKPA P6); details: inoculated six days after spraying, % diseased leaf area
Summary of the method: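 Disease was rated visually as % diseased leaf area up to 14 days after inoculation (23–27°C, 60–80% RH). Inoculum was P. pachyrhizi carrying cytochrome b F129L, followed by 24 h in a humid chamber (~95% RH). Inoculation came six days after protective spraying of seedlings with compound in acetone/DMSO–Wettol–water.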

[2] = system: Puccinia recondita; test: Use Example 3: curative control of brown rust on wheat (PUCCRT K4); details: % diseased leaf area
Experimental: The compound was dissolved in a mixture of acetone and/or dimethylsulfoxide and the wetting agent/emulsifier Wettol, which is based on ethoxylated alkylphenoles, in a ratio (volume) solvent-emulsifier of 99 to 1 to give a total volume of 5 ml. Subsequently, water was added to total volume of 100 ml. This stock solution was then diluted with the described solvent-emulsifier-water mixture to the final concentration given in the tables below.
Use Example 3. Curative Control of Brown Rust on Wheat Caused by Puccinia recondita (PUCCRT K4)
The first two developed leaves of potted wheat seedling were dusted with spores of Puccinia recondita. To ensure the success the artificial inoculation, the plants were transferred to a humid chamber without light and a relative humidity of 95 to 99% and 20 to 24° C. for 24 h. The next 3 days the plants were cultivated in a greenhouse chamber at 20 to 24° C. and a relative humidity between 65 and 70%. Then the plants were sprayed to run-off with previously described spray solution, containing the concentration of active ingredient or their mixture as described below. The plants were allowed to air-dry. Then the trial plants were cultivated for 5 to 7 days in a greenhouse chamber at 20 to 24° C. and a relative humidity between 65 and 70%. The extent of fungal attack on the leaves was visually assessed as % diseased leaf area, the disease level of untreated controls was usually between 80 and 100%.

[3] = system: Phakopsora pachyrhizi containing the amino acid substitution F129L in the mitochondrial cytochrome b protein; test: Use Example 1: protective control of soybean rust on soybeans (PHAKPA P2); details: inoculated 2 days after spraying, % diseased leaf area
Summary of the method: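 Protective test: plants were inoculated with the F129L cytochrome b rust strain 2 days after spraying to run-off, then held 24 h humid (~95% RH, 20-24° C) and up to 14 days at 23-27° C, 60-80% RH. Readout was visually assessed percent diseased leaf area.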

[4] = system: Puccinia recondita; test: Use Example 4: preventative control of brown rust on wheat (PUCCRT P7); details: inoculated seven days after spraying, % diseased leaf area
Summary of the method: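 Preventative test: Puccinia recondita spores dusted onto wheat seedlings seven days after spraying their first two leaves to run-off with the formulated compound. After 24 h humid dark incubation at 20–24 °C and 9–11 days of greenhouse growth at 65–70% RH, infection rated visually as % diseased leaf area.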

SMILES | % PHAKPA (F129L) Disease level P6 at 4 ppm [1] [%] | % PHAKPA (F129L) Disease level P6 at 16 ppm [1] [%] | % PUCCRT Disease level K4 at 4 ppm [2] [%] | % PUCCRT Disease level K4 at 16 ppm [2] [%] | % PHAKPA (F129L) Disease level P2 at 4 ppm [3] [%] | % PHAKPA (F129L) Disease level P2 at 16 ppm [3] [%] | % PUCCRT Disease level P7 at 4 ppm [4] [%] | % PUCCRT Disease level P7 at 16 ppm [4] [%]
CO/C=C(/C(=O)OC)c1cccc(Cl)c1CO/N=C(\COC)c1ccccc1F [compound 13, Methyl-(E)-2-[3-chloro-2-[[(Z)-[1-(2-fluorophenyl)-2-methoxy-ethylidene]amino]oxymethyl]phenyl]-3-methoxy-prop-2-enoate] | 4 | 0 | 67 | 4 | 5 | 0 | 67 | 18
CNC(=O)/C(=N/OC)c1cccc(Cl)c1CO/N=C(\COC)c1cc(F)cc(F)c1 [compound 86] | 10 | 0 | 52 | 4 | 17 | 0 | 19 | 4
CNC(=O)/C(=N/OC)c1cccc(Cl)c1CO/N=C(\COC)c1cc(Cl)ccc1F [compound 107] | 19 | 3 | 80 | 9 | 29 | 3 | 41 | 7
CNC(=O)/C(=N/OC)c1cccc(Cl)c1CO/N=C(\COC)c1cccc(OC)c1 [compound 119] | 36 | 5 | 42 | 2 | 32 | 0 | 13 | 1
CO/C=C(/C(=O)OC)c1cccc(Cl)c1CO/N=C(\COC)c1c(F)ccc(F)c1F [compound 113] | 10 | 1 | 77 | 13 | 1 | 0 | 70 | 10
CO/C=C(/C(=O)OC)c1cccc(Cl)c1CO/N=C(\COC)c1ccc(Cl)c(Cl)c1 [compound 71] | 28 | 7 | 34 | 3 | 31 | 4 | 4 | 3
CCOC/C(=N\OCc1c(Cl)cccc1/C(=N\OC)C(=O)NC)c1ccccc1F [compound 22] | 40 | 4 | 80 | 63 | 15 | 4 | 53 | 28
CO/C=C(/C(=O)OC)c1cccc(Cl)c1CO/N=C(\COC)c1cc(Cl)ccc1F [compound 105] | 13 | 0 | 42 | 5 | 18 | 2 | 44 | 4
CNC(=O)/C(=N/OC)c1cccc(Cl)c1CO/N=C(\COC)c1ccccc1Cl [compound 50] | 87 | 36 | 75 | 72 | 92 | 32 | 70 | 33
CCOC/C(=N\OCc1c(Cl)cccc1/C(=C\OC)C(=O)OC)c1ccc(Cl)cc1 [compound 45] | 70 | 15 | 80 | 68 | 60 | 8 | 82 | 27
CCOC/C(=N\OCc1c(Cl)cccc1/C(=N\OC)C(=O)OC)c1ccccc1F [compound 20] | 63 | 63 | 80 | 77 | 60 | 43 | 70 | 57
CO/C=C(/C(=O)OC)c1cccc(Cl)c1CO/N=C(\COC)c1ccc(F)cn1 [compound 131, Methyl (E)-2-[3-chloro-2-[[(Z)-[1-(5-fluoro-2-pyridyl)-2-methoxy-ethylidene]amino]oxymethyl]phenyl]-3-methoxy-prop-2-enoate] | 1 | 0 | 2 | 0 | 1 | 0 | 32 | 1
CO/C=C(/C(=O)OC)c1cccc(Br)c1CO/N=C(/C#Cc1ccc(F)cc1)COC [compound 8, Methyl-(E)-2-[3-bromo-2-[[(Z)-[3-(4-fluorophenyl)-1-(methoxymethyl)prop-2-ynylidene]amino]oxymethyl]phenyl]-3-methoxy-prop-2-enoate] | 12 | 0 | 6 | 0 | 2 | 0 | 0 | 0
CCOC/C(=N\OCc1c(Cl)cccc1/C(=N\OC)C(=O)NC)c1cccc(F)c1 [compound 42] | 32 | 4 | 70 | 42 | 11 | 0 | 62 | 12
CNC(=O)/C(=N/OC)c1cccc(Cl)c1CO/N=C(\COC)c1ccc(F)cc1 [compound 2, (2E)-2-[3-chloro-2-[[(Z)-[1-(4-fluorophenyl)-2-methoxyethylidene]amino]oxymethyl]phenyl]-2-methoxyimino-N-methyl-acetamide] | 0 | 1 | 63 | 4 | 16 | 0 | 15 | 5
CO/C=C(/C(=O)OC)c1cccc(Br)c1CO/N=C(\COC)c1ccccc1 [compound 59] | 1 | 0 | 11 | 0 | 0 | 0 | 22 | 0
CO/C=C(/C(=O)OC)c1cccc(Cl)c1CO/N=C(\COC)c1cc(F)cc(F)c1 [compound 80] | 0 | 0 | 30 | 0 | 5 | 0 | 5 | 3
